Measured values: ChEMBL document CHEMBL1156829 (Proc Natl Acad Sci U S A, 2008)
pEC50: −log10 of the molar value.

Columns and labels:
[1] = tested on: Plasmodium falciparum; assay: NOVARTIS: Inhibition of Plasmodium falciparum 3D7 (drug-susceptible) proliferation in erythrocyte-based infection assay; type: functional, organism-based; details: Plasmodium falciparum, 3D7
[2] = tested on: Plasmodium falciparum; assay: NOVARTIS: Inhibition of Plasmodium falciparum W2 (drug-resistant) proliferation in erythrocyte-based infection assay; type: functional, organism-based; details: Plasmodium falciparum, W2; read-out: EC50
[3] = NOVARTIS: Cytotoxicity against human hepatocellular carcinoma cell line (Huh7); type: toxicity, cell-based, Huh-7; details: Huh7 cells (hepatocellular carcinoma cell line)

Row | SMILES | pEC50 [1] | pEC50 [2] | CC50 [3] [nM]
1 | COc1cccc2c(C)nc(N=C(N)N)nc12 | 6.54 | 6.16 | 53500
2 | CCN(CC)c1ccc2cc(C(C)=NNC(N)=S)c(=O)oc2c1 | 5.37 | 5.13 | > 100000
3 | Cc1cccc[n+]1CCCCCCCCCC[n+]1ccccc1C | 6.99 | 7.09 | > 100000
4 | O[C@@H]1[C@H]2c3cc4c(cc3CN3CCC(=C[C@@H]1O)[C@H]23)OCO4 | 7.33 | 6.44 | > 10000
5 | CCCCNC(=O)N(CCCC(C)Nc1cc(OC)cc2cccnc12)Cc1ccc(OC)c(OC)c1 (stereo not given) | 5.90 | 6.37 | > 4470
6 | O=C(Cc1ccccc1)NCCCCNc1ccnc2cc(Cl)ccc12 | 6.48 | 6.50 | > 9600
7 | Fc1ccc(-c2c[n+](Cc3ccc(Cl)cc3)c3n2CCC3)cc1 | 5.94 | 6.43 | > 100000
8 | O=C(Cc1ccsc1)NC1CCN(CC(O)CN(Cc2ccccc2)S(=O)(=O)c2ccccc2)C1 (stereo not given) | 6.39 | 6.73 | > 10000
9 | Cc1nc2cc(-c3ccc(I)cc3)nn2c(O)c1C | 5.38 | 5.81 | > 100000
10 | COc1ccc(C(OCCS(=O)(=O)CCO)(c2ccccc2)c2ccc(OC)cc2)cc1 | 7.15 | 7.31 | 51600
11 | O=C(C[n+]1cc(-c2ccc(F)cc2)n2c1CCC2)Nc1ccc(Cl)cc1 | 5.54 | 5.64 | > 100000
12 | COc1cc(C(=O)Nc2cnc3ccccc3c2)ccc1-n1cnnn1 | 5.40 | 5.32 | > 100000
13 | O=C1C(Nc2ccc(F)cc2)=C(N2CCCCC2)C(=O)c2ccccc21 | 6.47 | 6.50 | 36800
14 | C=CCC(=O)NC1CCN(CC(O)CN(Cc2ccccc2)S(=O)(=O)c2ccccc2)C1 (stereo not given) | 6.59 | 5.87 | > 100000
15 | OC(CN1CCN(CC=Cc2ccccc2)CC1)Cn1c2ccc(Cl)cc2c2cc(Cl)ccc21 (stereo not given) | 6.74 | 7.12 | 17900
16 | O=C(Cn1c2ccccc2c(=O)c2ccc(Cl)cc21)Nc1ccc(C(F)(F)F)cc1 | 5.01 | 5.34 | > 100000
17 | CCCCCCOc1ccc(NC(=O)c2cccs2)cc1 | 6.40 | 6.01 | > 100000
18 | COc1ccc(-c2n(CC(=O)OC3CC(C)CCC3C(C)C)c3ccccc3[n+]2C)cc1 (stereo not given) | 6.41 | 6.63 | 13400

Row | SMILES | pEC50 [1] | pEC50 [2] | CC50 [3] [nM]
19 | CSc1cccc([C@@H]2C[C@H]3CN(c4ccccc4)C(=O)[C@]34CCCN24)c1 | 5.92 | 6.32 | 23500
20 | N#Cc1c(N)n(CCc2ccc(Cl)cc2Cl)c2nc3ccccc3nc12 | 6.08 | 6.31 | 33400
21 | CN(C)CCNc1ncnc2c1[nH]c1ccc(Cl)cc12 | 6.20 | 6.05 | 20400
22 | CC(C)(C)c1ccc(Oc2ccc(N3C(=O)C4CC=CCC4C3=O)cc2)cc1 (stereo not given) | < 5.90 | < 5.99 | > 10000
23 | O=C1c2cccc3cccc(c23)C(=O)N1c1ccc(-c2c3ccccc3c(-c3ccc(N4C(=O)c5cccc6cccc(c56)C4=O)cc3)c3ccccc23)cc1 | 5.98 | 6.00 | > 10000
24 | O=C(Nc1ccc(-c2nc3ccc(-c4nc5ccc(NC(=O)c6cccc7ccccc67)cc5[nH]4)cc3[nH]2)cc1)c1cccc2ccccc12 | 6.13 | 6.19 | > 100000
25 | Cc1ccc(-n2c(C)c(C(=O)c3ccccc3)c3cc(O)ccc32)cc1 | 6.29 | 6.21 | > 100000
26 | CC1=NOC(=O)/C1=C/c1ccc(-c2ccc([N+](=O)[O-])cc2)o1 | < 5.90 | < 6.06 | > 10000
27 | CCOc1cc(C(=O)Nc2ccc(-c3nc4ccccc4[nH]3)cc2)cc(OCC)c1OCC | 6.64 | 6.12 | 40000
28 | COC(=O)C1=C(C)N(C)C(C)=C(C(=O)OC)C1c1ccc([N+](=O)[O-])cc1 | 6.20 | 5.65 | > 100000
29 | O=C(C=Cc1ccccc1Cl)Nc1ccc(Oc2ccc3ccccc3c2Cl)c(Cl)c1 | 5.99 | < 4.90 | > 100000
30 | Cc1ccc(Nc2nc(NCc3ccco3)c3ccccc3n2)cc1 | 6.90 | 6.67 | 5270
31 | Cc1ccc(OCCCCN2CCOCC2)c([N+](=O)[O-])c1 | < 6.25 | < 5.89 | > 10000
32 | Cc1nnc2sc(SCc3ccc([N+](=O)[O-])cc3)nn2c1=O | < 6.32 | < 5.78 | > 10000
33 | CCOC(=O)C1=C(C)NC2=C(C(=O)C(C(=O)OCC)C(c3ccccc3OC)C2)C1c1cccs1 (stereo not given) | 5.74 | 6.62 | > 100000
34 | CC1(CNCc2ccccc2O)C2CC3CC(C2)CC1C3 (stereo not given) | 6.84 | 7.49 | > 10000
35 | CC(C)CNC(=O)c1cnc(NCCCN2CCCCC2C)nc1Nc1ccccc1 (stereo not given) | 5.94 | < 5.90 | > 10000
